{"source": "patent US20190216793A1", "about": "“COMPOSITIONS AND METHODS FOR TREATING NEGATIVE SYMPTOMS IN NON-SCHIZOPHRENIC PATIENTS” (Minerva Neurosciences, Inc., priority 2016, published 2019)", "key": {"[1]": {"test": "QT interval association of metabolite", "type": "in vivo", "conditions": "supra-therapeutic levels"}, "sigma2 [2]": {"molecular_target": "T1, sigma2 (Homo sapiens, UniProt Q5BJF2)", "T1 sequence (Q5BJF2 whole entry)": "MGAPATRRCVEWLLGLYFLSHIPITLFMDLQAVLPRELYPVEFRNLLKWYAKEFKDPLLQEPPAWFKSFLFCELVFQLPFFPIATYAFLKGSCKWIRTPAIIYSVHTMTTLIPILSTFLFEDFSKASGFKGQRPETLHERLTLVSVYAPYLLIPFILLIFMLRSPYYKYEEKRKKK", "test": "receptor affinity", "type": "binding"}, "[3]": {"molecular_target": "5-hydroxytryptamine-2A (5-HT2A) (Homo sapiens, UniProt P28223)", "sequence (P28223 whole entry, species assumed)": "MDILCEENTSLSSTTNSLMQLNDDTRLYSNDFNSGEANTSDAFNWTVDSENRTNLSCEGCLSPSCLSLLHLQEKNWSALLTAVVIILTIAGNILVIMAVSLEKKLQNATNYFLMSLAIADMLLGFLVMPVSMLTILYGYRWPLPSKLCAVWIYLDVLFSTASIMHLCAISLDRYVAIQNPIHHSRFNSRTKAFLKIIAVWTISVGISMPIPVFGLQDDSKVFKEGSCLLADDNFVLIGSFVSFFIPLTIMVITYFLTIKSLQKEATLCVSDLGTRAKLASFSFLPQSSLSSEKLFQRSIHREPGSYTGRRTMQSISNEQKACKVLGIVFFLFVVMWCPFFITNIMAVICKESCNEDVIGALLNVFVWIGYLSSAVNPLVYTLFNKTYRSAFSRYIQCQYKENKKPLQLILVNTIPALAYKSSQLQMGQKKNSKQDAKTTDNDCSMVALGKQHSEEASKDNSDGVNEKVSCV", "test": "receptor affinity", "type": "binding"}, "α1-adrenergic receptors": {"system": "α1-adrenergic receptors", "test": "receptor affinity", "type": "binding"}, "[4]": {"system": "patients with negative symptoms of schizophrenia", "conditions": "for improvement of negative symptoms compared to placebo: 32 mg and 64 mg daily doses, 244 schizophrenic patients; for effect size, PANSS Negative Subscale score (pentagonal model), change from baseline vs placebo: schizophrenic patients"}, "sigma2 [5]": {"molecular_target": "T1, sigma2", "test": "in vivo functional studies", "parameters": "In vivo functional studies have established that MIN-101 is an antagonist; from tissue; host or cells: whole organism in vivo"}, "dopaminergic receptors": {"system": "dopaminergic receptors", "test": "receptor affinity", "type": "binding"}, "muscarinic receptors": {"system": "muscarinic receptors", "test": "receptor affinity", "type": "binding"}, "cholinergic receptors": {"system": "cholinergic receptors", "test": "receptor affinity", "type": "binding"}, "histaminergic receptors": {"system": "histaminergic receptors", "test": "receptor affinity", "type": "binding"}, "5-HT2A receptors": {"molecular_target": "T2, 5-HT2A receptors (Homo sapiens, UniProt P28223)", "T2 construct": "In vivo functional studies have established that MIN-101 is an antagonist; from tissue; host or cells: whole organism in vivo", "T2 sequence (P28223 whole entry)": "as the sequence (P28223 whole entry, species assumed) above", "test": "in vivo functional studies"}}, "note": "Like-named read-outs stand apart in the source and are kept apart here."}
{"smiles": "O=C1c2ccccc2CN1CC1CCN(CC(O)c2ccc(F)cc2)CC1", "note": "(stereo not drawn) [BFB-520]", "values": [{"measurement": "effect on QT intervals", "setting": "[1]", "result": "prolongation of QT intervals"}]}
{"smiles": "O=C(CN1CCC(CN2Cc3ccccc3C2=O)CC1)c1ccc(F)cc1", "note": "[Compound I]", "values": [{"measurement": "affinity for sigma2", "setting": "sigma2 [2]", "result": "specific affinities"}, {"measurement": "affinity for 5-HT2A", "setting": "[3]", "result": "specific affinities"}, {"measurement": "affinity for α1-adrenergic receptors", "setting": "α1-adrenergic receptors", "result": "lower affinity levels"}, {"measurement": "improvement of negative symptoms compared to placebo", "setting": "[4]; 12 weeks", "result": "statistically significant improvement"}, {"measurement": "functional activity at sigma2 receptors", "setting": "sigma2 [5]", "result": "antagonizes sigma2 activity"}]}
{"smiles": "Cl.O.O.O=C(CN1CCC(CN2Cc3ccccc3C2=O)CC1)c1ccc(F)cc1", "note": "[MIN-101, 2-{1-[2-(4-Fluorophenyl)-2-oxoethyl]piperidin-4-ylmethyl}-2,3-dihydroisoindol-1-one monohydrochloride dihydrate]", "values": [{"measurement": "affinity for dopaminergic receptors", "setting": "dopaminergic receptors", "result": "very low or no affinity"}, {"measurement": "affinity for muscarinic receptors", "setting": "muscarinic receptors", "result": "very low or no affinity"}, {"measurement": "affinity for cholinergic receptors", "setting": "cholinergic receptors", "result": "very low or no affinity"}, {"measurement": "affinity for histaminergic receptors", "setting": "histaminergic receptors", "result": "very low or no affinity"}, {"measurement": "functional activity at 5-HT2A receptors", "setting": "5-HT2A receptors", "result": "antagonist"}, {"measurement": "improvement of negative symptoms compared to placebo", "setting": "[4]; 12 weeks", "result": "statistically significant benefit"}, {"measurement": "effect size, PANSS Negative Subscale score (pentagonal model), change from baseline vs placebo", "setting": "[4]; 32 mg daily, 12 weeks, p≤0.023", "result": 0.45}, {"measurement": "effect size, PANSS total score vs placebo", "setting": "[4]; 32 mg daily, 12 weeks, not significant", "result": 0.35}, {"measurement": "effect size, PANSS three factors negative symptoms subscale vs placebo", "setting": "[4]; 32 mg daily, 12 weeks, p≤0.006", "result": 0.55}, {"measurement": "effect size, PANSS Negative Subscale score (pentagonal model), change from baseline vs placebo", "setting": "[4]; 64 mg daily, 12 weeks, p≤0.003", "result": 0.57}, {"measurement": "effect size, PANSS three factors negative symptoms subscale vs placebo", "setting": "[4]; 64 mg daily, 12 weeks, p≤0.001", "result": 0.70}, {"measurement": "effect size, PANSS total score vs placebo", "setting": "[4]; 64 mg daily, 12 weeks, p≤0.003", "result": 0.59}, {"measurement": "positive symptoms during the trial", "setting": "[4]; 12-week trial", "result": "remained stable"}, {"measurement": "effect on negative symptoms measured using the BNSS total score", "setting": "[4]; both doses (32 mg and 64 mg daily), 12 weeks", "result": "Improvement in negative symptoms"}, {"measurement": "incidence and types of side effects, MIN-101 group vs placebo group", "setting": "[4]; human, in vivo", "result": "did not differ significantly"}, {"measurement": "metabolic adverse effects", "setting": "[4]; human, in vivo", "result": "no metabolic adverse effects"}, {"measurement": "prolactin elevation", "setting": "[4]; human, in vivo", "result": "no prolactin elevation"}, {"measurement": "functional activity at sigma2 receptors", "setting": "sigma2 [5]", "result": "antagonist"}]}
